Counter-ions that a name gives are not always drawn. Like-named read-outs stand apart in the source and are kept apart here. Each block holds one compound with its values, some of them ahead of it.
Legend:
Myzus persicae = assay: Myzus test (spray treatment); type: in vivo; details: foliar, read-out: efficacy in % (aphids killed)
Experimental: Solvent 78 parts by weight of acetone • • 1.5 parts by weight of dimethylformamide
Emulsifier: 0.5 part by weight of alkylaryl polyglycol ether
To prepare an appropriate active ingredient preparation, 1 part by weight of active ingredient is mixed with the stated amounts of solvent and emulsifier, and the concentrate is diluted with emulsifier-containing water to the desired concentration.

[1] = Determination of the log P values (formic acid method)
Experimental: 1) Description of Method for Determination of the log P Values (Formic Aid Method)
Eluents for determination in the acidic range (pH 3.4):
Eluent A: acetonitrile+1 ml of formic acid/liter. Eluent B: water+0.9 ml of formic acid/liter.
The lambda max values were determined in the maxima of the chromatographic signals using the UV spectra from 200 nm to 400 nm.

[2] = application rate 500 g/ha, sprayed Chinese cabbage leaf discs, all stages of green peach aphid
[3] = reverse-phase C18 HPLC column, pH 3.4, logP (HCOOH), final compounds table, HPLC reverse-phase C18, acidic range pH 3.4, 55° C.
[4] = reverse-phase C18 HPLC column, pH 3.4, log P (HCOOH), preparation examples, HPLC-MS
[5] = reverse-phase C18 HPLC column, pH 3.4, logP (HCOOH), intermediates tables, HPLC reverse-phase C18, acidic range pH 3.4, 55° C.

Structure (SMILES): Cc1noc(C)c1S(=O)(=O)NC(=O)c1cccc(-c2cnc(-c3cncc(F)c3)s2)n1 [Compound 58]
pest or weed control at 500 g/ha (Myzus persicae; [2]): 100% | chromatographic logP [1, 3]: 3

Structure (SMILES): N#Cc1cccc(-c2cnc(-c3cncc(F)c3)s2)n1 [6-[2-(5-Fluoropyridin-3-yl)-1,3-thiazol-5-yl]pyridine-2-carbonitrile]
chromatographic logP [1, 4]: 2.51

Structure (SMILES): CCC(=O)NS(=O)(=O)c1cccc(-c2cnn(-c3cccnc3)c2)n1 [Compound 42]
pest or weed control at 500 g/ha (Myzus persicae; [2]): 100% | chromatographic logP [1, 3]: 1.43

Structure (SMILES): O=C(NS(=O)(=O)c1ccccc1)c1cccc(-c2cnn(-c3cncnc3)c2)n1 [Compound 23]
pest or weed control at 500 g/ha (Myzus persicae; [2]): 90% | chromatographic logP [1, 3]: 2.24

Structure (SMILES): O=C(NS(=O)(=O)c1ccccc1)c1cccc(-c2cnn(-c3cccnc3)c2)n1 [Compound 32]
pest or weed control at 500 g/ha (Myzus persicae; [2]): 90% | chromatographic logP [1, 3]: 2.26

Structure (SMILES): CN(C)S(=O)(=O)NC(=O)c1cccc(-c2cnn(-c3cncc(F)c3)c2)n1 [Compound 16]
pest or weed control at 500 g/ha (Myzus persicae; [2]): 100% | chromatographic logP [1, 3]: 2.42

Structure (SMILES): Brc1cnn(-c2cccnc2)c1 [3-(4-Bromopyrazol-1-yl)pyridine]
chromatographic logP [1, 4]: 1.56

Structure (SMILES): O=C(NS(=O)(=O)Cc1ccccc1)c1cccc(-c2cnn(-c3cncc(F)c3)c2)n1 [Compound 33]
pest or weed control at 500 g/ha (Myzus persicae; [2]): 100% | chromatographic logP [1, 3]: 2.89

Structure (SMILES): CCN(CC)S(=O)(=O)NC(=O)c1cccc(-c2cnn(-c3cccnc3)c2)n1 [Compound 40]
pest or weed control at 500 g/ha (Myzus persicae; [2]): 100% | chromatographic logP ([1]; pH 3.4, logP (HCOOH)): 2.49

Structure (SMILES): Cc1nc(-c2cncc(F)c2)sc1-c1cc(C(=O)NS(C)(=O)=O)n(C)n1 [Compound 63, 3-[2-(5-Fluoropyridin-3-yl)-4-methyl-1,3-thiazol-5-yl]-1-methyl-N-(methylsulphonyl)-1H-pyrazole-5-carboxamide]
pest or weed control at 500 g/ha (Myzus persicae; [2]): 80% | chromatographic logP [1, 4]: 2.04 | chromatographic logP [1, 3]: 2.04

Structure (SMILES): O=C(NS(=O)(=O)C1CC1)c1cccc(-c2cnc(-c3cncc(F)c3)s2)n1 [Compound 6]
pest or weed control at 500 g/ha (Myzus persicae; [2]): 100% | chromatographic logP ([1]; pH 3.4, logP (HCOOH)): 2.44

Structure (SMILES): O=C(NS(=O)(=O)CC(F)(F)F)c1cccc(-c2nnc(-c3cncc(F)c3)s2)n1 [Compound 73]
pest or weed control at 500 g/ha (Myzus persicae; [2]): 100% | chromatographic logP [1, 3]: 2.42

Structure (SMILES): CS(=O)(=O)NC(=O)c1cccc(-c2cnc(-c3cccnc3)s2)n1 [Compound 12]
pest or weed control at 500 g/ha (Myzus persicae; [2]): 100% | chromatographic logP ([1]; pH 3.4, logP (HCOOH)): 1.56

Structure (SMILES): CCN(CC)S(=O)(=O)NC(=O)c1cccc(-c2cnn(-c3cncc(F)c3)c2)n1 [Compound 39]
pest or weed control at 500 g/ha (Myzus persicae; [2]): 100% | chromatographic logP ([1]; pH 3.4, logP (HCOOH)): 2.98

Structure (SMILES): CN(C(=O)c1cccc(-c2cnc(-c3cncc(F)c3)s2)n1)S(C)(=O)=O [Compound 52]
pest or weed control at 500 g/ha (Myzus persicae; [2]): 100% | chromatographic logP [1, 3]: 2.27

Structure (SMILES): COCCS(=O)(=O)NC(=O)c1cccc(-c2cnc(-c3cncc(F)c3)s2)n1 [Compound 55]
pest or weed control at 500 g/ha (Myzus persicae; [2]): 100% | chromatographic logP [1, 3]: 2.19

Structure (SMILES): CC1(C)OB(c2cnn(-c3cccnc3)c2)OC1(C)C [3-[4-(4,4,5,5-Tetramethyl-[1,3,2]dioxaborolan-2-yl)pyrazol-1-yl]pyridine]
chromatographic logP ([1]; pH 3.4, log P (HCOOH)): 2.19

Structure (SMILES): CCN(CC)S(=O)(=O)NC(=O)c1cccc(-c2cnn(-c3cncnc3)c2)n1 [Compound 38]
pest or weed control at 500 g/ha (Myzus persicae; [2]): 90% | chromatographic logP ([1]; pH 3.4, logP (HCOOH)): 2.36

Structure (SMILES): CC(=O)NS(=O)(=O)c1cccc(-c2cnc(-c3cncc(F)c3)s2)n1 [Compound 67]
pest or weed control at 500 g/ha (Myzus persicae; [2]): 100% | chromatographic logP [1, 3]: 1.72

Structure (SMILES): O=C(NS(=O)(=O)N1CCCCC1)c1cccc(-c2cnc(-c3cncc(F)c3)s2)n1 [Compound 54]
pest or weed control at 500 g/ha (Myzus persicae; [2]): 100% | chromatographic logP [1, 3]: 3.29

Structure (SMILES): CN(C)S(=O)(=O)NC(=O)c1cccc(-c2cnc(-c3cncc(F)c3)s2)n1 [Compound 53]
pest or weed control at 500 g/ha (Myzus persicae; [2]): 100% | chromatographic logP ([1]; pH 3.4, logP (HCOOH)): 2.54

Structure (SMILES): CS(=O)(=O)N(c1cccc(-c2cnn(-c3cncc(F)c3)c2)n1)S(C)(=O)=O [Compound 14]
pest or weed control at 500 g/ha (Myzus persicae; [2]): 90% | chromatographic logP ([1]; pH 3.4, logP (HCOOH)): 2.15

Structure (SMILES): N=C(N)c1cccc(-c2cnc(-c3cccnc3)s2)n1 [Compound 48]
pest or weed control at 500 g/ha (Myzus persicae; in Brassica rapa): 90%

Structure (SMILES): Cc1nc(-c2cncc(F)c2)sc1-c1cc(C(=O)NS(C)(=O)=O)nn1C [Compound 64]
pest or weed control at 500 g/ha (Myzus persicae; [2]): 100% | chromatographic logP ([1]; pH 3.4, logP (HCOOH)): 1.84

Structure (SMILES): Cc1nc(-c2cncc(F)c2)sc1-c1cc(C(=O)O)n(C)n1 [3-[2-(5-Fluoropyridin-3-yl)-4-methyl-1,3-thiazol-5-yl]-1-methyl-1H-pyrazole-5-carboxylic acid]
chromatographic logP [1, 4]: 2.05

Structure (SMILES): CS(=O)(=O)NC(=O)c1nc(-c2cnn(-c3cncc(F)c3)c2)cs1 [Compound 46, 4-[1-(5-Fluoropyridin-3-yl)-1H-pyrazol-4-yl]-N-(methylsulphonyl)-1,3-thiazole-2-carboxamide]
pest or weed control at 500 g/ha (Myzus persicae; [2]): 100% | chromatographic logP [1, 4]: 1.68 | chromatographic logP [1, 3]: 1.68

Structure (SMILES): CS(=O)(=O)NC(=O)c1cccc(-c2cnn(-c3cncc(F)c3)c2)n1 [Compound 4, 6-[1-(5-Fluoropyridin-3-yl)-1H-pyrazol-4-yl]-N-(methylsulphonyl)pyridine-2-carboxamide]
chromatographic logP [1, 4]: 1.98

Structure (SMILES): CC(=O)Nc1nnc(S(=O)(=O)NC(=O)c2cccc(-c3nnc(-c4cncc(F)c4)s3)n2)s1 [Compound 76]
pest or weed control at 500 g/ha (Myzus persicae; [2]): 100% | chromatographic logP [1, 3]: 1.43

Structure (SMILES): O=C(NS(=O)(=O)Cc1ccccc1)c1cccc(-c2cnn(-c3cccnc3)c2)n1 [Compound 35]
pest or weed control at 500 g/ha (Myzus persicae; [2]): 100% | chromatographic logP ([1]; pH 3.4, logP (HCOOH)): 2.44

Structure (SMILES): O=C(NS(=O)(=O)C1CC1)c1cccc(-c2cnn(-c3cccnc3)c2)n1 [Compound 30]
pest or weed control at 500 g/ha (Myzus persicae; [2]): 100% | chromatographic logP ([1]; pH 3.4, logP (HCOOH)): 1.85

Structure (SMILES): O=C(NS(=O)(=O)c1ccccc1)c1cccc(-c2cnn(-c3cncc(F)c3)c2)n1 [Compound 31]
pest or weed control at 500 g/ha (Myzus persicae; [2]): 100% | chromatographic logP ([1]; pH 3.4, logP (HCOOH)): 2.82

Structure (SMILES): CS(=O)(=O)NC(=O)c1csc(Br)n1 [XV-1, 2-Bromo-N-(methylsulphonyl)-1,3-thiazole-4-carboxamide]
chromatographic logP [1, 4]: 0.83 | chromatographic logP [1, 5]: 0.82

Structure (SMILES): CCOC(=O)c1cc(-c2sc(-c3cncc(F)c3)nc2C)nn1C [Ethyl 3-[2-(5-fluoropyridin-3-yl)-4-methyl-1,3-thiazol-5-yl]-1-methyl-1H-pyrazole-5-carboxylate]
chromatographic logP ([1]; pH 3.4, log P (HCOOH)): 3.7

Structure (SMILES): O=C(O)c1cccc(-c2cnc(-c3cncc(F)c3)s2)n1 [6-[2-(5-Fluoropyridin-3-yl)-1,3-thiazol-5-yl]pyridine-2-carboxylic acid]
chromatographic logP [1, 4]: 1.72

Structure (SMILES): COC(=O)c1cccc(-c2cnc(-c3cncc(F)c3)s2)n1 [Methyl 6-[2-(5-fluoropyridin-3-yl)-1,3-thiazol-5-yl]pyridine-2-carboxylate]
chromatographic logP ([1]; pH 3.4, log P (HCOOH)): 2.37

Structure (SMILES): N=C(N)c1cccc(-c2cnc(-c3cncc(F)c3)s2)n1 [Compound 79, 6-[2-(5-Fluoropyridin-3-yl)-1,3-thiazol-5-yl]pyridine-2-carboxamide amide hydrochloride (1:1)]
chromatographic logP [1, 4]: 0.71

Structure (SMILES): CCOC(=O)C(=O)CC(=O)c1sc(-c2cncc(F)c2)nc1C [Ethyl 4-[2-(5-fluoropyridin-3-yl)-4-methyl-1,3-thiazol-5-yl]-2,4-dioxobutanoate]
chromatographic logP ([1]; pH 3.4, log P (HCOOH)): 3.37

Structure (SMILES): CS(=O)(=O)NC(=O)c1cccc(-c2cn[nH]c2)n1 [N-(Methylsulphonyl)-6-(1H-pyrazol-4-yl)pyridine-2-carboxamide]
chromatographic logP [1, 4]: 0.91

Structure (SMILES): Nc1cccc(-c2cnn(-c3cccnc3)c2)n1 [6-[1-(Pyridin-3-yl)-1H-pyrazol-4-yl]pyridine-2-amine]
chromatographic logP [1, 4]: 0.3

Further lines, results first:

chromatographic logP [1, 4]: 1.48 | chromatographic logP [1, 5]: 1.51
Structure (SMILES): Fc1cncc(-c2nccs2)c1 [XIII-1, 3-Fluoro-5-(1,3-thiazol-2-yl)pyridine]

chromatographic logP [1, 5]: 1.94
Structure (SMILES): Clc1cncc(-c2nccs2)c1 [XIII-2]

chromatographic logP [1, 5]: 1.54
Structure (SMILES): CCS(=O)(=O)NC(=O)c1cccc(Br)n1 [XII-5]

chromatographic logP [1, 4]: 0.99 | chromatographic logP [1, 5]: 0.99
Structure (SMILES): NS(=O)(=O)c1cccc(-c2cnn(-c3cccnc3)c2)n1 [XVII-1, 6-[1-(pyridin-3-yl)-1H-pyrazol-4-yl]pyridine-2-sulphonamide]

chromatographic logP [1, 5]: 2.4
Structure (SMILES): O=C(NS(=O)(=O)Cc1ccccc1)c1cccc(Br)n1 [XII-1]

chromatographic logP ([1]; pH 3.4, logP (HCOOH)): 0.89
Structure (SMILES): NS(=O)(=O)c1cccc(-c2cnn(-c3cncnc3)c2)n1 [XVII-3]

chromatographic logP [1, 4]: 1.21 | chromatographic logP [1, 5]: 1.28
Structure (SMILES): CS(=O)(=O)NC(=O)c1cccc(Br)n1 [XII-4, 6-Bromo-N-(methylsulphonyl)pyridine-2-carboxamide]

chromatographic logP [1, 5]: 1.82
Structure (SMILES): CN(C)S(=O)(=O)NC(=O)c1cccc(Br)n1 [XII-2]

chromatographic logP [1, 5]: 1.34
Structure (SMILES): N#Cc1cncc(-c2nccs2)c1 [XIII-4]

chromatographic logP [1, 4]: 0.63 | chromatographic logP [1, 5]: 0.63
Structure (SMILES): CS(=O)(=O)NC(=O)c1nc(Br)cs1 [XVI-1, 4-Bromo-N-(methylsulphonyl)-1,3-thiazole-2-carboxamide]

chromatographic logP [1, 5]: 2.32
Structure (SMILES): O=C(NS(=O)(=O)c1ccccc1)c1cccc(Br)n1 [XII-6]

chromatographic logP [1, 5]: 1.15
Structure (SMILES): CS(=O)(=O)NC(=O)c1cccc(Cl)n1 [XII-3]

chromatographic logP [1, 4]: 0.95 | chromatographic logP [1, 5]: 0.95
Structure (SMILES): CC(=O)NS(=O)(=O)c1cccc(Br)n1 [XIV-2, N-[(6-Bromopyridin-2-yl)sulphonyl]acetamide]

chromatographic logP [1, 5]: 0.69
Structure (SMILES): c1ncc(-c2nccs2)cn1 [XIII-3]

chromatographic logP [1, 5]: 1.44
Structure (SMILES): NS(=O)(=O)c1cccc(-c2cnn(-c3cncc(F)c3)c2)n1 [XVII-2]

chromatographic logP [1, 5]: 1.7
Structure (SMILES): O=C(NS(=O)(=O)C1CC1)c1cccc(Br)n1 [XII-7]
